# Reference: ChEMBL document CHEMBL6096734, “Design, Synthesis and Anti-Inflammatory Evaluation of 3-Substituted 5-Amidobenzoate Derivatives as Novel P2Y14 Receptor Antagonists via Structure-Guided Molecular Hybridization” (J Med Chem, 2025)
# Activity calls are given as the source filed them. The rule behind the calls is not given here.
# Experiments:
# [1] = biological target: T1, P2Y purinoceptor 14 (Homo sapiens) (UniProt Q15391); details: time 30.0 min
# T1 sequence (whole entry): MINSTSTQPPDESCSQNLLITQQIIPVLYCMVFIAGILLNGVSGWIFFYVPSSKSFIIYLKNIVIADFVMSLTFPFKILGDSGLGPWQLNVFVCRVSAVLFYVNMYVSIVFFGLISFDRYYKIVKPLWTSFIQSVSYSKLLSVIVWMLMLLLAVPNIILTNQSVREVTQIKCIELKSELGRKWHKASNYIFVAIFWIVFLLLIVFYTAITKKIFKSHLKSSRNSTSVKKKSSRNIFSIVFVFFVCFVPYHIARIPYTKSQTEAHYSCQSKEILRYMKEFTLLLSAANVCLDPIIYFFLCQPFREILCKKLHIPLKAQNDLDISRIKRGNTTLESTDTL
# [2] = tested on: Mus musculus; test: Anti-inflammatory activity in LPS-induced male C57BL/6 mouse model of acute […] injury assessed as decrease dsDNA formation at 2 mg/kg measured after 7 days; type: functional, organism-based; details: time 7.0 day
# [3] = tested on: Mus musculus; test: Anti-inflammatory activity in LPS-induced male C57BL/6 mouse model of acute […] injury assessed as decrease in CXCL1 level in serum at 2 mg/kg measured after 7 days by ELISA method; type: functional, organism-based; details: time 7.0 day
# [4] = tested on: Mus musculus; test: Anti-inflammatory activity in LPS-induced male C57BL/6 mouse model of acute […] injury assessed as decrease in CCL2 mRNA expression in lung at 2 mg/kg measured after 7 days by qPCR analysis; type: functional, organism-based; details: time 7.0 day
# [5] = tested on: Mus musculus; test: Anti-inflammatory activity in LPS-induced male C57BL/6 mouse model of acute […] injury assessed as decrease in lymphocyte count in BALF at 2 mg/kg measured after 7 days; type: functional, organism-based; details: time 7.0 day
# [6] = tested on: Mus musculus; test: Anti-inflammatory activity in LPS-induced male C57BL/6 mouse model of acute […] injury assessed as decrease in monocyte count in BALF at 2 mg/kg measured after 7 days; type: functional, organism-based; details: time 7.0 day
# [7] = tested on: Mus musculus; test: Anti-inflammatory activity in LPS-induced male C57BL/6 mouse model of acute […] injury assessed as decrease in caspase-1 expression at p10 subunit at 2 mg/kg measured after 7 days; type: functional, organism-based; details: time 7.0 day
# [8] = tested on: Mus musculus; test: Anti-inflammatory activity in LPS-induced male C57BL/6 mouse model of acute […] injury assessed as reduction in Wet/dry weight ratio at 2 mg/kg measured after 7 days; type: functional, organism-based; details: time 7.0 day
# [9] = tested on: Mus musculus; test: Anti-inflammatory activity in LPS-induced male C57BL/6 mouse model of acute […] injury assessed as reduction of interstitial hemorrhage at 2 mg/kg measured after 7 days by H and E staining based analysis; type: functional, organism-based; details: time 7.0 day
# [10] = tested on: Mus musculus; test: Anti-inflammatory activity in LPS-induced male C57BL/6 mouse model of acute […] injury assessed as decrease NE level at 2 mg/kg measured after 7 days; type: functional, organism-based; details: time 7.0 day
# [11] = tested on: Mus musculus; test: Anti-inflammatory activity in LPS-induced male C57BL/6 mouse model of acute […] injury assessed as decrease in GSDMD-N expression at 2 mg/kg measured after 7 days; type: functional, organism-based; details: time 7.0 day
# [12] = tested on: Mus musculus; test: Anti-inflammatory activity in LPS-induced male C57BL/6 mouse model of acute […] injury assessed as decrease in IL-1 beta level at 2 mg/kg measured after 7 days; type: functional, organism-based; details: time 7.0 day
# [13] = tested on: Mus musculus; test: Anti-inflammatory activity in LPS-induced male C57BL/6 mouse model of acute […] injury assessed as decrease in caspase-1 expression at p20 subunit at 2 mg/kg measured after 7 days; type: functional, organism-based; details: time 7.0 day
# [14] = tested on: Mus musculus; test: Anti-inflammatory activity in LPS-induced male C57BL/6 mouse model of acute […] injury assessed as reduction of neutrophil infiltration at 2 mg/kg measured after 7 days by H and E staining based analysis; type: functional, organism-based; details: time 7.0 day
# [15] = tested on: Mus musculus; test: Anti-inflammatory activity in LPS-induced male C57BL/6 mouse model of acute […] injury assessed as decrease in TNF-alpha level at 2 mg/kg measured after 7 days; type: functional, organism-based; details: time 7.0 day
# [16] = tested on: Mus musculus; test: Anti-inflammatory activity in LPS-induced male C57BL/6 mouse model of acute […] injury assessed as decrease CXCL9 mRNA expression in lung at 2 mg/kg measured after 7 days by qPCR analysis; type: functional, organism-based; details: time 7.0 day
# [17] = tested on: Mus musculus; test: Anti-inflammatory activity in LPS-induced male C57BL/6 mouse model of acute […] injury assessed as decrease in total WBC count in BALF at 2 mg/kg measured after 7 days; type: functional, organism-based; details: time 7.0 day
# [18] = tested on: Mus musculus; test: Anti-inflammatory activity in LPS-induced male C57BL/6 mouse model of acute […] injury assessed as decrease in CXCL1 mRNA expression in lung at 2 mg/kg measured after 7 days by qPCR analysis; type: functional, organism-based; details: time 7.0 day
# [19] = tested on: Mus musculus; test: Anti-inflammatory activity in LPS-induced male C57BL/6 mouse model of acute […] injury assessed as reduction of lung edema at 2 mg/kg measured after 7 days by H and E staining based analysis; type: functional, organism-based; details: time 7.0 day
# [20] = tested on: Mus musculus; test: Anti-inflammatory activity in LPS-induced male C57BL/6 mouse model of acute […] injury assessed as decrease in neutrophil count in BALF at 2 mg/kg measured after 7 days; type: functional, organism-based; details: time 7.0 day
# [21] = tested on: Mus musculus; test: Anti-inflammatory activity in LPS-induced male C57BL/6 mouse model of acute […] injury assessed as decrease MPO level at 2 mg/kg measured after 7 days; type: functional, organism-based; details: time 7.0 day
# [22] = tested on: Mus musculus; test: Anti-inflammatory activity in LPS-induced male C57BL/6 mouse model of acute […] injury assessed as decrease in F4/80+ macrophage in lung tissue at 2 mg/kg measured after 7 days by immunofluorescence analysis; type: functional, organism-based; details: time 7.0 day
# [23] = tested on: Mus musculus; test: Anti-inflammatory activity in LPS-induced male C57BL/6 mouse model of acute […] injury assessed as decrease in CXCL10 mRNA expression in lung at 2 mg/kg measured after 7 days by qPCR analysis; type: functional, organism-based; details: time 7.0 day
# [24] = tested on: Mus musculus; test: Anti-inflammatory activity in LPS-induced male C57BL/6 mouse model of acute […] injury assessed as decrease in ASC expression at 2 mg/kg measured after 7 days; type: functional, organism-based; details: time 7.0 day
# [25] = tested on: Mus musculus; test: Anti-inflammatory activity in LPS-induced male C57BL/6 mouse model of acute […] injury assessed as decrease in Ly6G+ neutrophils in lung tissue at 2 mg/kg measured after 7 days by immunofluorescence analysis; type: functional, organism-based; details: time 7.0 day
# [26] = tested on: Mus musculus; test: Anti-inflammatory activity in LPS-induced male C57BL/6 mouse model of acute […] injury assessed as appearance of tight junction integrity at 2 mg/kg measured after 7 days by ZO-1 staining based immunofluorescence analysis; type: functional, organism-based; details: time 7.0 day
# [27] = tested on: Mus musculus; test: Anti-inflammatory activity in LPS-induced male C57BL/6 mouse model of acute […] injury assessed as decrease in NLRP3 expression at 2 mg/kg measured after 7 days; type: functional, organism-based; details: time 7.0 day
# [28] = tested on: Mus musculus; test: Anti-inflammatory activity in LPS-induced male C57BL/6 mouse model of acute […] injury assessed as alveolar wall thickening at 2 mg/kg measured after 7 days by H and E staining based analysis; type: functional, organism-based; details: time 7.0 day
# [29] = tested on: Mus musculus; test: Anti-inflammatory activity in LPS-induced male C57BL/6 mouse model of acute […] injury assessed as reduction of intravascular congestion at 2 mg/kg measured after 7 days by H and E staining based analysis; type: functional, organism-based; details: time 7.0 day
# [30] = tested on: Mus musculus; test: Anti-inflammatory activity in LPS-induced male C57BL/6 mouse model of acute […] injury assessed as decrease in CCL2 level in serum at 2 mg/kg measured after 7 days by ELISA method; type: functional, organism-based; details: time 7.0 day
# [31] = tested on: Mus musculus; test: Anti-inflammatory activity in LPS-induced male C57BL/6 mouse model of acute […] injury assessed as decrease in IL-6 level at 2 mg/kg measured after 7 days; type: functional, organism-based; details: time 7.0 day
# [32] = biological target: T2, P2Y purinoceptor 14 (Homo sapiens, UniProt Q15391); test: Antagonist activity at human P2Y14R stably expressed in HEK293 cells assessed as inhibition of UDPG-induced cAMP accumulation at 100 nM incubated for 30 mins in presence of forskolin by cAMP-Glo assay relative to control; type: functional, cell-based
# T2 sequence (Q15391 whole entry): T1 sequence (whole entry)
# [33] = HEK293, filed as antagonist, dose 100.0 nM
structure (smiles),measurement,setting,value
COc1ccc(CC(=O)Nc2cc(C(=O)O)cc(-c3nc4ccccc4o3)c2)cc1,inhibition,[1]; [33],48%
O=C(Cc1ccc(-n2cccc2)cc1)Nc1cc(C(=O)O)cc(-c2nc3ccccc3o2)c1,inhibition,"[1]; HEK293, dose 100.0 nM",24.2%
O=C(Cn1cccc1)Nc1cc(C(=O)O)cc(-c2nc3ccccc3o2)c1,inhibition,[1]; [33],43.2%
COC(=O)c1cc(NC(=O)Cc2ccccc2)cc(-c2nc3ccccc3o2)c1,inhibition,[1]; [33],48.6%
COC(=O)c1cc(NC(=O)Cc2ccc(OC)cc2)cc(-c2nc3ccccc3o2)c1,inhibition,"[1]; HEK293, dose 100.0 nM",39.3%
COC(=O)c1cc(NC(=O)Cc2ccc(C)c(C)c2)cc(-c2nc3ccccc3o2)c1,inhibition,"[1]; HEK293, dose 100.0 nM",34.5%
O=C(Cc1ccccc1)Nc1cc(C(=O)O)cc(-c2nc3ccccc3o2)c1,inhibition,"[1]; HEK293, dose 100.0 nM",35.2%
O=C(Cc1ccc(C(F)(F)F)cc1)Nc1cc(C(=O)O)cc(-c2nc3ccccc3o2)c1,inhibition,"[1]; HEK293, dose 100.0 nM",23.1%
COC(=O)c1cc(NC(=O)Cc2cccs2)cc(-c2nc3ccccc3o2)c1,inhibition,"[1]; HEK293, dose 100.0 nM",36.5%
O=C(Cn1cncn1)Nc1cc(C(=O)O)cc(-c2nc3ccccc3o2)c1,inhibition,"[1]; HEK293, dose 100.0 nM",38.3%
COC(=O)c1cc(NC(=O)Cc2ccc(F)cc2)cc(-c2nc3ccccc3o2)c1,inhibition,"[1]; HEK293, dose 100.0 nM",inactive
O=C(Cc1cccs1)Nc1cc(C(=O)O)cc(-c2nc3ccccc3o2)c1,inhibition,"[1]; HEK293, dose 100.0 nM",39.8%
C[C@@H]1C[C@H]2[C@@H]3CCC4=CC(=O)C=C[C@]4(C)[C@@]3(F)[C@@H](O)C[C@]2(C)[C@@]1(O)C(=O)CO,Activity,[2],Active
same,Activity,[3],Active
same,Activity,[4],Active
same,Activity,[5],Active
same,Activity,[6],Active
same,Activity,[7],Active
same,Activity,[8],Active
same,Activity,[9],Active
same,Activity,[10],Active
same,Activity,[11],Active
same,Activity,[12],Active
same,Activity,[13],Active
same,Activity,[14],Active
same,Activity,[15],Active
same,Activity,[16],Active
same,Activity,[17],Active
same,Activity,[18],Active
same,Activity,[19],Active
same,Activity,[20],Active
same,Activity,[21],Active
same,Activity,[22],Active
same,Activity,[23],Active
same,Activity,[24],Active
same,Activity,[25],Active
same,Activity,[26],Active
same,Activity,[27],Active
same,Activity,[28],Active
same,Activity,[29],Active
same,Activity,[30],Active
same,Activity,[31],Active
Cc1ccc(CC(=O)Nc2cc(C(=O)NCCOCCOCCOCCNC(=O)CCCC[C@H]3SC[C@H]4NC(=O)N[C@H]43)cc(-c3nc4ccccc4[nH]3)c2)cc1,IC50,[32],0.84 nM
COC(=O)c1cc(NC(=O)Cc2ccc(C)cc2)cc(-c2nc3ccccc3s2)c1,inhibition,"[1]; HEK293, dose 100.0 nM",34.7%
COC(=O)c1cc(NC(=O)Cn2cccc2)cc(-c2nc3ccccc3o2)c1,inhibition,"[1]; HEK293, dose 100.0 nM",26.3%
O=C(Cc1ccc(F)cc1)Nc1cc(C(=O)O)cc(-c2nc3ccccc3o2)c1,inhibition,"[1]; HEK293, dose 100.0 nM",30.8%
O=C(Cc1ccc(Br)cc1)Nc1cc(C(=O)O)cc(-c2nc3ccccc3o2)c1,inhibition,"[1]; HEK293, dose 100.0 nM",20.9%
COC(=O)c1cc(NC(=O)Cn2cncn2)cc(-c2nc3ccccc3o2)c1,inhibition,[1]; [33],41.5%
COC(=O)c1cc(NC(=O)Cc2ccc(-n3cccc3)cc2)cc(-c2nc3ccccc3o2)c1,inhibition,"[1]; HEK293, dose 100.0 nM",32.3%
COC(=O)c1cc(NC(=O)Cc2ccc(C)cc2C)cc(-c2nc3ccccc3o2)c1,inhibition,[1]; [33],42.3%
N#Cc1ccc(CC(=O)Nc2cc(C(=O)O)cc(-c3nc4ccccc4o3)c2)cc1,inhibition,[1]; [33],46.1%
